Measured values from patent US9242993B2, “Morpholino substituted bicyclic pyrimidine urea or carbamate derivatives as mTOR inhibitors” (CELLZOME LIMITED, priority 2011, dated 2016).
pIC50: −log10 of the molar value.

Key:
[1] = tested on: S6RP serine-240/244 phosphorylation; assay: In vitro phospho-S6 cellular assay; assay type: cell-based; settings: Homo sapiens; HEK293T/17 cells, 2 hours; read-out: pS6 inhibition value (IC50), activity level
Source text: Activation of mTOR signaling results in phosphorylation of several downstream targets. In cells, mTOR exists in two different protein complexes. The mTOR Complex-1 (mTORC1) phosphorylates and activates S6 Kinase 1 (S6K1) and S6 Kinase 2 (S6K2) (also known as p70S6K) which then phosphorylate S6 Ribosomal Protein (S6RP) (also known as RPS6)3. S6RP is phosphorylated on serine 235, serine 236, serine 240 and serine 244 by both pS6K1 and pS6K2. The mTOR Complex-2 (mTORC2) phosphorylates AKT on serine 473 which activates the AKT signaling pathway.
The assay measures a test compound's inhibition of S6RP serine-240/244 phosphorylation and inhibition of Akt serine-473 phosphorylation in human embryonic kidney derived HEK293T/17 cells (ATCC CRL-11268).
The HEK293T/17 cell line is maintained in DMEM media (Invitrogen catalogue number 41965-039) supplemented with 10% FCS at 37° C. in a 5% CO2 humidified incubator.
Cells are seeded in 96-well plates at 40,000 cells/well (pS6RP S240/244 assay) or 80,000 cells/well (pAkt S473 assay) in 90 μl growth media (DMEM, 2% FCS). Plates are incubated for 1 hour in a humidified incubator to allow the cells to adhere. Cells are treated with 8 concentrations of test compounds or DMSO alone for controls (final DMSO concentration 0.1%) and incubated at 37° C. for 2 hours. Then 20 μl of 5× concentrated lysis buffer (750 mM NaCl, 100 mM Tris pH7.4, 5 mM ADTA, 5 mM EGTA, 5% Triton X-100) is added, plates are sealed and incubated for 15 minutes at 4° C. with gentle shaking. After cell lysis, 25 μl cell lysate is transferred to a MesoScale plate coated with an antibody to pS6RP Ser240/244 (MesoScale Discovery K150DGD-3) or an antibody to pAkt Ser 473 (MesoScale Discovery K151DGD-3). Plates have been blocked before by incubation with 150 μl MesoScale Discovery Blocking Solution-A for 1 hour at room temperature followed by washing with 150 μl 1× Tris wash buffer per well. After the transfer of the cell lysate to the MSD plate, the pS6RP (or pAkt) protein is captured on the coated antibody by incubation at room temperature for 1 hour with gentle shaking. After the capture step the plate is washed three times with 150 μl of 1× Tris wash buffer per well. Then 25 μl detection antibody conjugated with a Sulfo-Tag is added and incubated for 1 hour at room temperature with gentle shaking. Subsequently the antibody solution is removed and the plate is washed 3 times with 150 μl 1× Tris wash buffer per well and 150 μl Read buffer is added. The plates are analysed on a MSD 2400 Plate Reader (MesoScale Discovery). Data analysis is performed using nonlinear regression for a sigmoidal dose-response with a variable slope.

[2] = tested on: IFNγ release in whole blood; assay: In vitro human whole blood assay (IFNγ release); assay type: cell-based; settings: αCD3/αCD28 and IL-2 stimulation, 18 hours, read-out: WB inhibition value (pIC50) (converted)
Method: This assay measures IFNγ release in whole blood after αCD3/αCD28 and IL-2 treatment. The whole blood contains circulating T lymphocytes; αCD3/αCD28 stimulation mimics antigen receptor signalling, resulting in epigenetic changes to the IFNG gene locus, such that when IL-2 is added, IFNγ is produced.
Human whole blood, with Na-heparin as the anticoagulant, is obtained from Clinical Trials Laboratory Services. Blood is diluted 1.4 times with RPMI 1640 (Lonza, BE12-167F) and 175 μl/well is distributed in a low evaporation 96-well plates (Falcon, BD Labware, 353072). Blood is treated with 10 concentrations of test compounds or DMSO alone for controls (final DMSO concentration 0.2%) and incubated at 37° C. for 1 hour. Blood is then stimulated with 1 μg/ml αCD3 (R&D Systems, MAB100), 1 μg/ml αCD28 (BD Pharmingen, 555725) and IL-2 at 10 ng/ml (Peprotech, 200-02). Blood is then left to incubate at 37° C. for 18 hours. After, plates are spun at 250 g for 5 minutes to pellet blood cells and 25 μl of plasma is transferred to a MesoScale plate coated with an antibody to IFNγ (MesoScale Discovery K151AEC-2) containing 25 μl/well MesoScale Discovery Blocking Solution-2. Plates have been blocked by incubating with 25 μl/well MesoScale Discovery Blocking Solution-2 for 30 minutes at room temperature. After the transfer of sera to the MSD plate, the IFNγ protein is captured on the coated antibody by incubation at room temperature for 2 hour with gentle shaking. After the capture step the plate is washed three times with 150 μl/well of 1×PBS-Tween wash buffer and 25 μl/well detection antibody conjugated with a Sulfo-Tag is added and incubated for 2 hours at room temperature with gentle shaking. Subsequently the antibody solution is removed and the plate is washed 3 times with 150 μl/well 1×PBS-Tween wash buffer and 150 μl/well MesoScale Discovery Read buffer is added. The plates are analysed on a MSD 2400 Plate Reader (MesoScale Discovery). Data analysis is performed using nonlinear regression for a sigmoidal dose-response with a variable slope.

mTOR = mTOR (Homo sapiens, UniProt P42345); assay: biochemical

pIC50 [1]	IC50 [2]	pIC50 (mTOR)	SMILES
> 7.00	2000 nM	> 7.00	CC1c2c(nc(-c3ccc(NC(=O)NCC4CC4)cc3)nc2N2CCOC[C@@H]2C)CS1(=O)=O (stereo partly drawn) [Example 46, 1-(cyclopropylmethyl)-3-(4-(5-methyl-4-((S)-3-methylmorpholino)-6,6-dioxido-5,7-dihydrothieno[3,4-d]pyrimidin-2-yl)phenyl)urea]
> 7.00	79.4 nM	> 7.00	CC1c2c(nc(-c3ccc(NC(=O)NC4CC4)cc3)nc2N2CCOC[C@H]2C)CS1(=O)=O (stereo partly drawn) [Example 48, 1-cyclopropyl-3-(4-(5-methyl-4-((R)-3-methylmorpholino)-6,6-dioxido-5,7-dihydrothieno[3,4-d]pyrimidin-2-yl)phenyl)urea]
> 7.00	200 nM	> 7.00	CCC1c2c(nc(-c3ccc(NC(=O)NC4CC4)cc3)nc2N2CCOC[C@@H]2C)CS1(=O)=O (stereo partly drawn) [Example 49, 1-cyclopropyl-3-(4-(5-ethyl-4-((S)-3-methylmorpholino)-6,6-dioxido-5,7-dihydrothieno[3,4-d]pyrimidin-2-yl)phenyl)urea]
> 7.00	1000 nM	> 7.00	CCNC(=O)Nc1ccc(-c2nc3c(c(N4CCOC[C@@H]4C)n2)C(C)S(=O)(=O)C3)cc1F (stereo partly drawn) [Example 50, 1-ethyl-3-(2-fluoro-4-(5-methyl-4-((S)-3-methylmorpholino)-6,6-dioxido-5,7-dihydrothieno[3,4-d]pyrimidin-2-yl)phenyl)urea]
> 7.00	200 nM	> 7.00	C[C@@H]1COCCN1c1nc(-c2ccc(NC(=O)NC3CC3)cc2)nc2c1CS(=O)(=O)C2(C)C [Example 54, (R)-1-cyclopropyl-3-(4-(7,7-dimethyl-4-(3-methylmorpholino)-6,6-dioxido-5,7-dihydrothieno[3,4-d]pyrimidin-2-yl)phenyl)urea]
> 7.00	251 nM	6.00 to 7.00	C[C@@H]1COCCN1c1nc(-c2ccc(NC(=O)NC3CC3)cc2)nc2c1[C@H](C)S(=O)(=O)C2 [Example 63, 1-cyclopropyl-3-(4-((S)-5-methyl-4-((R)-3-methylmorpholino)-6,6-dioxido-5,7-dihydrothieno[3,4-d]pyrimidin-2-yl)phenyl)urea]
> 7.00	126 nM	> 7.00	CC1c2c(N3CCOC[C@@H]3C)nc(-c3ccc(NC(=O)NCCF)cc3)nc2C(C)(C)S1(=O)=O (stereo partly drawn) [Example 75, 1-(2-fluoroethyl)-3-(4-(5,7,7-trimethyl-4-((S)-3-methylmorpholino)-6,6-dioxido-5,7-dihydrothieno[3,4-d]pyrimidin-2-yl)phenyl)urea]
> 7.00	631 nM	> 7.00	CCNC(=O)Nc1ccc(-c2nc(N3CCOCC3)c3c(n2)C(C)(C)S(=O)(=O)C3)cc1 [Example 76, 1-(4-(7,7-dimethyl-4-morpholino-6,6-dioxido-5,7-dihydrothieno[3,4-d]pyrimidin-2-yl)phenyl)-3-ethylurea]
> 7.00	200 nM	> 7.00	CNC(=O)Nc1ccc(-c2nc(N3CCOC[C@@H]3C)c3c(n2)C(C)(C)S(=O)(=O)C3C)cc1 (stereo partly drawn) [Example 77, 1-methyl-3-(4-(5,7,7-trimethyl-4-((S)-3-methylmorpholino)-6,6-dioxido-5,7-dihydrothieno[3,4-d]pyrimidin-2-yl)phenyl)urea]
> 7.00	501 nM	> 7.00	CNC(=O)Nc1ccc(-c2nc(N3CCOC[C@@H]3C)c3c(n2)C(C)(C)S(=O)(=O)C3C)c(F)c1 (stereo partly drawn) [Example 78, 1-(3-fluoro-4-(5,7,7-trimethyl-4-((S)-3-methylmorpholino)-6,6-dioxido-5,7-dihydrothieno[3,4-d]pyrimidin-2-yl)phenyl)-3-methylurea]
> 7.00	631 nM	> 7.00	CC[C@H]1COCCN1c1nc(-c2ccc(NC(=O)NC)cc2F)nc2c1C(C)S(=O)(=O)C2(C)C (stereo partly drawn) [Example 79, 1-(4-(4-((S)-3-ethylmorpholino)-5,7,7-trimethyl-6,6-dioxido-5,7-dihydrothieno[3,4-d]pyrimidin-2-yl)-3-fluorophenyl)-3-methylurea]
